These are literature values, as cited in patent publication US20070072813A1, “Methods for preventing and treating metabolic disorders and new pyrazole-O-glycoside derivatives” (priority 2005, published 2007).

The structures appear in SMILES notation.

For the series the following is noted: metformin on its own, in the diabetic.

Consider `CN(C)C(=N)N=C(N)N` [metformin], for which the “average improvement in the HbA1c value” is on record as 1.0-1.5%.
